Test results published in ChEMBL document CHEMBL1127255, “Synthesis of the benzofuran analogue of ILV, a new protein kinase C (PKC) activator” (Bioorg Med Chem Lett, 1994).
pKi: −log10 of the molar value.

Target: Protein kinase C alpha type (Homo sapiens, UniProt P17252)
Assay: Displacement of [3H]PDBu from PKC alpha expressed in Sf9 cells

SMILES	pKi
CC(C)[C@H]1C(=O)N[C@H](CO)Cc2coc3cccc(c23)N1C	7.76
CC(C)[C@H]1C(=O)N[C@H](CO)Cc2c[nH]c3cccc(c23)N1C [INDOLACTUM]	7.96
